In patent US11884711B2, “Fusion proteins of GDF15 and use thereof” (BEIJING QL BIOPHARMACEUTICAL CO., LTD., priority 2020, dated 2024):

System: C57BL/6 mice
Experiment: In vivo food intake and body weight in C57BL/6 mice
Details: 30 nmol/kg subcutaneously every day for 10 days
Protocol: 10 week old male C57BL/6 mice were injected everyday subcutaneously with 30 nmol/kg of the fusion proteins for 10 days (n=5/group), semaglutide was studied in parallel as a control. Body weight (BW) was measured daily for each individual animal and food intake was measured daily for each entire treatment group. Day 1 and Day 10 are the first day and the last day of treatment. % BW loss=100*(BW on Day n−BW on Day 1)/(BW on Day 1). Cumulative food intake on Day n represents sum of food intake from Day 1 to Day n. Data are indicated as mean values and standard error (SEM) or pooled values. Body weight reduction on Day 11 is calculated by −1*(% BW loss of treatment group-% BW loss of vehicle group); Cumulative food intake reduction on Day 11 is calculated by −100*(cumulative food intake of treatment group−cumulative food intake of vehicle group)/cumulative food intake of vehicle group.

semaglutide [reference compound]
Body weight reduction at 30 nmol/kg (% reduction compared to vehicle) (Day 11): 7.27%
Cumulative food intake reduction at 30 nmol/kg (% reduction compared to vehicle) (Day 11): 11.8%
